Measurements from US8952024B2, “Herbicidal pyrimidone derivatives” (E I du Pont de Nemours and Company, priority 2009, dated 2015).
Like-named read-outs stand apart in the source and are kept apart here.

Legend:
Assay type in all cases: in vivo
[1] = system: pigweed (Amaranthus retroflexus); assay: Test A pre-/postemergence plant response; conditions: Amaranthus retroflexus, 240 h; for pest or weed control at 125 g/ha: 125 g ai/ha; for pest or weed control at 500 g/ha: 500 g ai/ha
Method in brief: (§1)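 Injury was scored visually after roughly ten days against untreated controls, 0 = no effect, 100 = complete control. Test chemicals in a surfactant-containing non-phytotoxic solvent were sprayed either onto soil preemergence or onto one- to two-leaf, 2–10 cm plants postemergence.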

[2] = system: corn (Zea mays); assay: Test A pre-/postemergence plant response; conditions: Zea mays, 240 h; for Corn plant response rating (crop injury, 0 = no effect, 100 = complete kill) at 500 g/ha: 500 g ai/ha
Method in brief: as §1

[3] = system: morningglory (Ipomoea spp.); assay: Test A pre-/postemergence plant response; conditions: Ipomoea, 240 h; for pest or weed control at 125 g/ha: 125 g ai/ha; for pest or weed control at 500 g/ha: 500 g ai/ha
Method in brief: as §1

[4] = system: barnyardgrass (Echinochloa crus-galli); assay: Test A pre-/postemergence plant response; conditions: Echinochloa crus-galli, 240 h; for pest or weed control at 125 g/ha: 125 g ai/ha; for pest or weed control at 500 g/ha: 500 g ai/ha
Method in brief: as §1

[5] = system: wheat (Triticum aestivum); assay: Test A pre-/postemergence plant response; conditions: Triticum aestivum, 240 h; for plant injury at 125 g/ha: 125 g ai/ha; for plant injury at 500 g/ha: 500 g ai/ha
Method in brief: as §1

[6] = system: velvetleaf (Abutilon theophrasti); assay: Test A pre-/postemergence plant response; conditions: Abutilon theophrasti, 240 h; for pest or weed control at 125 g/ha: 125 g ai/ha; for pest or weed control at 500 g/ha: 500 g ai/ha
Method in brief: as §1

[7] = system: giant foxtail (Setaria faberii); assay: Test A pre-/postemergence plant response; conditions: Setaria faberi, 240 h; for pest or weed control at 125 g/ha: 125 g ai/ha; for pest or weed control at 500 g/ha: 500 g ai/ha
Method in brief: as §1

[8] = system: large crabgrass (Digitaria sanguinalis); assay: Test A pre-/postemergence plant response; conditions: Digitaria sanguinalis, 240 h; for pest or weed control at 125 g/ha: 125 g ai/ha; for pest or weed control at 500 g/ha: 500 g ai/ha
Method in brief: as §1

[9] = system: rice (Oryza sativa); assay: Test B flooded paddy test; conditions: Oryza sativa
Method in brief: (§2)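 Rice, umbrella sedge, ducksalad and barnyardgrass were grown to the 2-leaf stage, flooded to 3 cm, and compound was applied directly to the paddy water, with that depth kept throughout. After 13 to 15 days in the greenhouse, plants were visually rated against controls on a 0 (no effect) to 100 (complete control) scale.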

[10] = system: barnyardgrass (Echinochloa crus-galli); assay: Test B flooded paddy test; conditions: Echinochloa crus-galli, 360 h
Method in brief: as §2

[11] = system: umbrella sedge (Cyperus difformis); assay: Test B flooded paddy test; conditions: Cyperus difformis, 360 h
Method in brief: as §2

[12] = system: ducksalad (Heteranthera limosa); assay: Test B flooded paddy test; conditions: Heteranthera limosa, 360 h
Method in brief: as §2

Which results are given for `COc1ccc(-n2c(-c3ccccc3)ncc(C(=O)C3=C(O)CCCC3=O)c2=O)cc1` [Compound 4, 5-[(2-hydroxy-6-oxo-cyclohexen-1-yl)carbonyl]-3-(4-methoxyphenyl)-2-phenyl-4(3H)-pyrimidinone]?
pest or weed control at 125 g/ha ([1]; post-emergence, Postemergence, visual injury, 0 to 100 scale (0 no effect, 100 complete control), approx. ten days, read-out: Pigweed plant response rating): 100%; pest or weed control at 500 g/ha ([1]; post-emergence, Postemergence, 0 to 100 scale, 0 = no effect, 100 = complete control, approx. ten days, read-out: Plant response rating, Pigweed): 100%; pest or weed control at 125 g/ha ([1]; pre-emergence, Preemergence, 0 to 100 scale, 0 = no effect, 100 = complete control, read-out: Plant response rating, Pigweed): 90%; pest or weed control at 500 g/ha ([1]; pre-emergence, Preemergence, visual injury, 0 to 100 scale (0 no effect, 100 complete control), approx. ten days, read-out: Plant response rating, Pigweed): 90%; plant injury at 125 g/ha ([2]; post-emergence, Postemergence, 125 g ai/ha, visual injury, 0 to 100 scale (0 no effect, 100 complete control), approx. ten days, read-out: Corn plant response rating): 10%; Corn plant response rating (crop injury, 0 = no effect, 100 = complete kill) at 500 g/ha ([2]; post-emergence, Postemergence, 0 to 100 scale, 0 = no effect, 100 = complete control, approx. ten days): 50%; Corn plant response rating (crop injury, 0 = no effect, 100 = complete kill) at 125 g/ha ([2]; pre-emergence, Preemergence, 125 g ai/ha, 0 to 100 scale, 0 = no effect, 100 = complete control): 0%; Corn plant response rating (crop injury, 0 = no effect, 100 = complete kill) at 500 g/ha ([2]; pre-emergence, Preemergence, visual injury, 0 to 100 scale (0 no effect, 100 complete control), approx. ten days): 20%; pest or weed control at 125 g/ha ([3]; post-emergence, Postemergence, visual injury, 0 to 100 scale (0 no effect, 100 complete control), approx. ten days, read-out: Morningglory plant response rating): 100%; pest or weed control at 500 g/ha ([3]; post-emergence, Postemergence, 0 to 100 scale, 0 = no effect, 100 = complete control, approx. ten days, read-out: Plant response rating, Morningglory): 100%; pest or weed control at 125 g/ha ([3]; pre-emergence, Preemergence, 0 to 100 scale, 0 = no effect, 100 = complete control, read-out: Plant response rating, Morningglory): 0%; pest or weed control at 500 g/ha ([3]; pre-emergence, Preemergence, visual injury, 0 to 100 scale (0 no effect, 100 complete control), approx. ten days, read-out: Plant response rating, Morningglory): 70%; pest or weed control at 125 g/ha ([4]; post-emergence, Postemergence, visual injury, 0 to 100 scale (0 no effect, 100 complete control), approx. ten days, read-out: Barnyardgrass plant response rating): 90%; pest or weed control at 500 g/ha ([4]; post-emergence, Postemergence, 0 to 100 scale, 0 = no effect, 100 = complete control, approx. ten days, read-out: Plant response rating, Barnyardgrass): 100%; pest or weed control at 125 g/ha ([4]; pre-emergence, Preemergence, 0 to 100 scale, 0 = no effect, 100 = complete control, read-out: Plant response rating, Barnyardgrass): 10%; pest or weed control at 500 g/ha ([4]; pre-emergence, Preemergence, visual injury, 0 to 100 scale (0 no effect, 100 complete control), approx. ten days, read-out: Plant response rating, Barnyardgrass): 70%; plant injury at 125 g/ha ([5]; post-emergence, Postemergence, visual injury, 0 to 100 scale (0 no effect, 100 complete control), approx. ten days, read-out: Wheat plant response rating): 0%; plant injury at 500 g/ha ([5]; post-emergence, Postemergence, 0 to 100 scale, 0 = no effect, 100 = complete control, approx. ten days, read-out: Plant response rating, Wheat): 60%; plant injury at 125 g/ha ([5]; pre-emergence, Preemergence, 0 to 100 scale, 0 = no effect, 100 = complete control, read-out: Plant response rating, Wheat): 0%; plant injury at 500 g/ha ([5]; pre-emergence, Preemergence, visual injury, 0 to 100 scale (0 no effect, 100 complete control), approx. ten days, read-out: Plant response rating, Wheat): 20%; pest or weed control at 125 g/ha ([6]; post-emergence, Postemergence, visual injury, 0 to 100 scale (0 no effect, 100 complete control), approx. ten days, read-out: Velvetleaf plant response rating): 100%; pest or weed control at 500 g/ha ([6]; post-emergence, Postemergence, 0 to 100 scale, 0 = no effect, 100 = complete control, approx. ten days, read-out: Plant response rating, Velvetleaf): 100%; pest or weed control at 125 g/ha ([6]; pre-emergence, Preemergence, 0 to 100 scale, 0 = no effect, 100 = complete control, read-out: Plant response rating, Velvetleaf): 40%; pest or weed control at 500 g/ha ([6]; pre-emergence, Preemergence, visual injury, 0 to 100 scale (0 no effect, 100 complete control), approx. ten days, read-out: Plant response rating, Velvetleaf): 100%; pest or weed control at 125 g/ha ([7]; post-emergence, Postemergence, visual injury, 0 to 100 scale (0 no effect, 100 complete control), approx. ten days, read-out: Foxtail, Giant plant response rating): 80%; pest or weed control at 500 g/ha ([7]; post-emergence, Postemergence, 0 to 100 scale, 0 = no effect, 100 = complete control, approx. ten days, read-out: Plant response rating, Foxtail, Giant): 90%; pest or weed control at 125 g/ha ([7]; pre-emergence, Preemergence, 0 to 100 scale, 0 = no effect, 100 = complete control, read-out: Plant response rating, Foxtail, Giant): 10%; pest or weed control at 500 g/ha ([7]; pre-emergence, Preemergence, visual injury, 0 to 100 scale (0 no effect, 100 complete control), approx. ten days, read-out: Plant response rating, Foxtail, Giant): 70%; pest or weed control at 125 g/ha ([8]; post-emergence, Postemergence, visual injury, 0 to 100 scale (0 no effect, 100 complete control), approx. ten days, read-out: Crabgrass, Large plant response rating): 70%; pest or weed control at 500 g/ha ([8]; post-emergence, Postemergence, 0 to 100 scale, 0 = no effect, 100 = complete control, approx. ten days, read-out: Plant response rating, Crabgrass, Large): 90%; pest or weed control at 125 g/ha ([8]; pre-emergence, Preemergence, 0 to 100 scale, 0 = no effect, 100 = complete control, read-out: Plant response rating, Crabgrass, Large): 20%; pest or weed control at 500 g/ha ([8]; pre-emergence, Preemergence, visual injury, 0 to 100 scale (0 no effect, 100 complete control), approx. ten days, read-out: Plant response rating, Crabgrass, Large): 90%; plant injury at 250 g/ha ([9]; 250 g ai/ha, flooded paddy test, visual rating on 0 to 100 scale (0 no effect, 100 complete control) after 13 to 15 days, read-out: Plant response rating, Flood, Rice): 0%; plant injury at 31 g/ha ([9]; Flood (flooded paddy test), 31 g ai/ha, scale of 0 to 100 where 0 is no effect and 100 is complete control, 13 to 15 days, read-out: Plant response rating, Rice): 0%; plant injury at 62 g/ha ([9]; Flood (flooded paddy test), 62 g ai/ha, scale 0 to 100, 0 is no effect, 100 is complete control, 13 to 15 days, read-out: Plant response rating, Rice): 0%; plant injury at 125 g/ha ([9]; Flood (flooded paddy test), 125 g ai/ha, scale 0 to 100, 0 is no effect, 100 is complete control, 13 to 15 days, read-out: Plant response rating, Rice): 0%; pest or weed control at 250 g/ha ([10]; 250 g ai/ha, flooded paddy test, visual rating on 0 to 100 scale (0 no effect, 100 complete control) after 13 to 15 days, read-out: Plant response rating, Flood, Barnyardgrass): 20%; pest or weed control at 31 g/ha ([10]; Flood (flooded paddy test), 31 g ai/ha, scale of 0 to 100 where 0 is no effect and 100 is complete control, 13 to 15 days, read-out: Plant response rating, Barnyardgrass): 0%; pest or weed control at 62 g/ha ([10]; Flood (flooded paddy test), 62 g ai/ha, scale 0 to 100, 0 is no effect, 100 is complete control, 13 to 15 days, read-out: Plant response rating, Barnyardgrass): 0%; pest or weed control at 125 g/ha ([10]; Flood (flooded paddy test), 125 g ai/ha, scale 0 to 100, 0 is no effect, 100 is complete control, 13 to 15 days, read-out: Plant response rating, Barnyardgrass): 0%; pest or weed control at 250 g/ha ([11]; 250 g ai/ha, flooded paddy test, visual rating on 0 to 100 scale (0 no effect, 100 complete control) after 13 to 15 days, read-out: Plant response rating, Flood, Sedge, Umbrella): 90%; pest or weed control at 31 g/ha ([11]; Flood (flooded paddy test), 31 g ai/ha, scale of 0 to 100 where 0 is no effect and 100 is complete control, 13 to 15 days, read-out: Plant response rating, Sedge, Umbrella): 50%; pest or weed control at 62 g/ha ([11]; Flood (flooded paddy test), 62 g ai/ha, scale 0 to 100, 0 is no effect, 100 is complete control, 13 to 15 days, read-out: Plant response rating, Sedge, Umbrella): 65%; pest or weed control at 125 g/ha ([11]; Flood (flooded paddy test), 125 g ai/ha, scale 0 to 100, 0 is no effect, 100 is complete control, 13 to 15 days, read-out: Plant response rating, Sedge, Umbrella): 80%; pest or weed control at 250 g/ha ([12]; 250 g ai/ha, flooded paddy test, visual rating on 0 to 100 scale (0 no effect, 100 complete control) after 13 to 15 days, read-out: Plant response rating, Flood, Ducksalad): 85%; pest or weed control at 31 g/ha ([12]; Flood (flooded paddy test), 31 g ai/ha, scale of 0 to 100 where 0 is no effect and 100 is complete control, 13 to 15 days, read-out: Plant response rating, Ducksalad): 20%; pest or weed control at 62 g/ha ([12]; Flood (flooded paddy test), 62 g ai/ha, scale 0 to 100, 0 is no effect, 100 is complete control, 13 to 15 days, read-out: Plant response rating, Ducksalad): 40%; pest or weed control at 125 g/ha ([12]; Flood (flooded paddy test), 125 g ai/ha, scale 0 to 100, 0 is no effect, 100 is complete control, 13 to 15 days, read-out: Plant response rating, Ducksalad): 75%
